Test results reported in patent US20130280260A1, “OSTEOCLASTOGENESIS INHIBITOR CONTAINING ANTI-VDAC ANTIBODY” (TOKYO WOMEN'S MEDICAL UNIVERSITY, priority 2010, published 2013).

Experiments:
human osteoclasts = assay: Inhibition of osteoclast differentiation and osteoclastogenesis in human osteoclastogenesis culture system (monocytes with M-CSF and RANKL); type: cell-based; details: 0.2 μg/mL or 2 μg/mL, in comparison with the control
Protocol: • (1) Preparation of Monoclonal Antibodies against Cell Membrane Proteins of Osteoclasts • (i) Peripheral blood monocytes from five healthy subjects were cultured in flasks in the presence of M-CSF and RANKL for approximately 2 weeks and differentiated into osteoclasts. After trypsin and EDTA were added to the human osteoclasts, the resulting cells were cultured at 37° C. for 15 minutes, and then detached with a cell scraper and harvested. This operation was repeated to collect cell membranes of human mature osteoclasts. Membrane proteins were prepared from the human mature osteoclasts using a RIPA buffer. • (ii) Using the obtained membrane proteins as an antigen, mice were immunized. Spleen cells of the mice thus immunized were fused with myeloma cells, and four types of hybridomas were obtained. Screening was performed by ELISA using a plate on which the osteoclast membrane proteins were immobilized. The wells of the positive result were further examined for a reactivity to human osteoclasts and a nonspecific reactivity to monocytes. After cloning, 5D1/2B9/2H10 and 5D1/3F3/2C8 were obtained as final lines. • (iii) From these final lines, monoclonal antibodies were obtained. • (2) Purification of Proteins Bound to Antibody Column
• (1) Into the human osteoclastogenesis culture system obtained in step 1. […]

[1] = tested on: monoclonal antibody 20B12 (anti-VDAC1); assay: Epitope analysis by ELISA using synthetic peptides covering VDAC1; type: binding, mouse; details: for OD450-595: 20B12 at 5 μg/mL, average of two wells; for reaction between peptide and antibody (ELISA): text summary of Tables 2, 3
Protocol: In order to examine an epitope for the anti-VDCA monoclonal antibody (VDAC1(20B12), SANTA CRUZ Biotechnology, Inc., sc-58649, mouse monoclonal IgG2b, 100 μg/ml), an analysis was conducted by ELISA using synthetic peptides (Table 1). As the synthetic peptides, 28 types of peptides were prepared so as to cover the VDAC1 completely.
The synthetic peptides were fixed to plates by an avidin-biotin method as follows.
The synthetic peptides (325 nmol/peptide) were each dissolved in 250 μL of DMSO, and then diluted 6400-fold with Wash Buffer (PBS containing 0.05% Tween-20). After a streptavidin-coated plate was washed with Wash Buffer (350 μL, 3 times), 100 μL of the peptide thus diluted was added into the plate, which was left standing in cold storage overnight.
ELISA was performed using the plate to which the peptide was fixed in 7.1, and antibodies bound to the peptide were detected. The detection procedure was as follows. Two wells were used for one condition, and the average was taken. • (1) The liquid in wells was taken out. After washing with Wash Buffer (350 μL, three times), 200 μL of Blocking Buffer (SynBlock) was added to the wells, which were shaken at 37° C. for 1 hour. • (2) The liquid in the wells was taken out, and 50 μL of the monoclonal antibody 20B12 (diluted to 5 μg/mL with Blocking Buffer) was added to the wells, which were shaken at 37° C. for 1 hour. • (3) The liquid in the wells was taken out. After washing with Wash Buffer, 50 μL of HRP-labeled Goat anti Mouse IgG (Fc) (the original solution had been diluted 25000-fold with Wash Buffer) was added to the wells, which were shaken at 37° C. for 1 hour. • (4) The liquid in the wells was taken out, and the plate was washed. Then, 60 μL of a staining solution was added to the plate, which was incubated at 37° C. for 30 minutes. After 60 μL of a stop solution was added thereto to stop the color reaction, the absorbance at 450 nm (Reference 595 nm) was measured with a plate reader.

Row | Compound | osteoclastogenesis (total area of osteoclasts) (human osteoclasts) | OD450-595 ([1]; first time) | OD450-595 ([1]; second time) | reaction between peptide and antibody (ELISA) [1]
1 | NCCCC(O)(P(=O)(O)O)P(=O)(O)O [alendronate sodium hydrate] | significantly inhibited |  |  | 
2 | ACFSAKVNNS SLIGLGYTQT (ACFSAKVNNSSLIGLGYTQT) [Peptide 24, synthetic peptide covering part of VDAC1] |  | 1.284 | 1.336 | significant
3 | AGYQMNFETA KSRVTQSNFA (AGYQMNFETAKSRVTQSNFA) [Peptide 16, synthetic peptide covering part of VDAC1] |  | 0.388 | 0.444 | 
4 | ALLDGKNVNA GGHKLGLGLE (ALLDGKNVNAGGHKLGLGLE) [Peptide 27, synthetic peptide covering part of VDAC1] |  | 0.290 | 0.371 | 
5 | ALVLGYEGWL AGYQMNFETA (ALVLGYEGWLAGYQMNFETA) [Peptide 15, synthetic peptide covering part of VDAC1] |  | 0.337 | 0.373 | 
6 | EHINLGCDMD FDIAGPSIRG (EHINLGCDMDFDIAGPSIRG) [Peptide 13, synthetic peptide covering part of VDAC1] |  | 0.369 | 0.322 | 
7 | FDIAGPSIRG ALVLGYEGWL (FDIAGPSIRGALVLGYEGWL) [Peptide 14, synthetic peptide covering part of VDAC1] |  | 0.316 | 0.385 | 
8 | FTEKWNTDNT LGTEITVEDQ (FTEKWNTDNTLGTEITVEDQ) [Peptide 8, synthetic peptide covering part of VDAC1] |  | 0.341 | 0.411 | 
9 | FTSSGSANTE TTKVTGSLET (FTSSGSANTETTKVTGSLET) [Peptide 5, synthetic peptide covering part of VDAC1] |  | 0.311 | 0.351 | 
10 | GGHKLGLGLE FQA (GGHKLGLGLEFQA) [Peptide 28, synthetic peptide covering part of VDAC1] |  | 0.418 | 0.455 | 
11 | GGSIYQKVNK KLETAVNLAW (GGSIYQKVNKKLETAVNLAW) [Peptide 20, synthetic peptide covering part of VDAC1] |  | 0.362 | 0.398 | 
12 | GKSARDVFTK GYGFGLIKLD (GKSARDVFTKGYGFGLIKLD) [Peptide 2, synthetic peptide covering part of VDAC1] |  | 0.363 | 0.421 | 
13 | GYGFGLIKLD LKTKSENGLE (GYGFGLIKLDLKTKSENGLE) [Peptide 3, synthetic peptide covering part of VDAC1] |  | 0.280 | 0.354 | 
14 | HTNVNDGTEF GGSIYQKVNK (HTNVNDGTEFGGSIYQKVNK) [Peptide 19, synthetic peptide covering part of VDAC1] |  | 0.300 | 0.312 | 
15 | IAAKYQIDPD ACFSAKVNNS (IAAKYQIDPDACFSAKVNNS) [Peptide 23, synthetic peptide covering part of VDAC1] |  | 0.276 | 0.357 | 
16 | KLETAVNLAW TAGNSNTRFG (KLETAVNLAWTAGNSNTRFG) [Peptide 21, synthetic peptide covering part of VDAC1] |  | 0.235 | 0.270 | 
17 | KSRVTQSNFA VGYKTDEFQL (KSRVTQSNFAVGYKTDEFQL) [Peptide 17, synthetic peptide covering part of VDAC1] |  | 0.285 | 0.308 | 
18 | KYRWTEYGLT FTEKWNTDNT (KYRWTEYGLTFTEKWNTDNT) [Peptide 7, synthetic peptide covering part of VDAC1] |  | 0.321 | 0.371 | 
19 | LARGLKLTFD SSFSPNTGKK (LARGLKLTFDSSFSPNTGKK) [Peptide 10, synthetic peptide covering part of VDAC1] |  | 0.360 | 0.351 | 
20 | LGTEITVEDQ LARGLKLTFD (LGTEITVEDQLARGLKLTFD) [Peptide 9, synthetic peptide covering part of VDAC1] |  | 0.286 | 0.338 | 
21 | LKPGIKLTLS ALLDGKNVNA (LKPGIKLTLSALLDGKNVNA) [Peptide 26, synthetic peptide covering part of VDAC1] |  | 0.268 | 0.367 | 
22 | LKTKSENGLE FTSSGSANTE (LKTKSENGLEFTSSGSANTE) [Peptide 4, synthetic peptide covering part of VDAC1] |  | 0.312 | 0.423 | 
23 | MAVPPTYADL GKSARDVFTK (MAVPPTYADLGKSARDVFTK) [Peptide 1, synthetic peptide covering part of VDAC1] |  | 0.448 | 0.443 | 
24 | NAKIKTGYKR EHINLGCDMD (NAKIKTGYKREHINLGCDMD) [Peptide 12, synthetic peptide covering part of VDAC1] |  | 0.345 | 0.375 | 
25 | SLIGLGYTQT LKPGIKLTLS (SLIGLGYTQTLKPGIKLTLS) [Peptide 25, synthetic peptide covering part of VDAC1] |  | 0.590 | 0.679 | weak reaction
26 | SSFSPNTGKK NAKIKTGYKR (SSFSPNTGKKNAKIKTGYKR) [Peptide 11, synthetic peptide covering part of VDAC1] |  | 0.319 | 0.361 | 
27 | TAGNSNTRFG IAAKYQIDPD (TAGNSNTRFGIAAKYQIDPD) [Peptide 22, synthetic peptide covering part of VDAC1] |  | 0.318 | 0.319 | 
28 | TTKVTGSLET KYRWTEYGLT (TTKVTGSLETKYRWTEYGLT) [Peptide 6, synthetic peptide covering part of VDAC1] |  | 0.358 | 0.363 | 
29 | VGYKTDEFQL HTNVNDGTEF (VGYKTDEFQLHTNVNDGTEF) [Peptide 18, synthetic peptide covering part of VDAC1] |  | 0.275 | 0.305 | 
